Measurements published in patent US20230025537A1, “MIXTURE COMPRISING HYDROGENATED SOYBEAN OIL AND THYMOL” (DSM IP Assets B.V., priority 2019, published 2023).
Values after ≈ are worked out from the molar mass of the structure shown. Where two headings read alike, the source gives them in different places.

Assays:
Cl. perfringens = assay: microbe, parasite or virus in culture; type: cell-based; details: Clostridium perfringens, 24 h, read-out: MIC values, Clostrisium perfringens
E. coli K88+ [1] = assay: MIC by two-fold broth dilution method; type: cell-based; details: Escherichia coli, 24 h, read-out: MIC values, Escheria coli K88^+
E. coli K88+ [2] = type: cell-based, Escherichia coli K88+; details: individually
S. choleraesuis = assay: MIC by two-fold broth dilution method; type: cell-based; details: Salmonella enterica, 24 h, read-out: MIC values, Salmonella choleraesius

SMILES | MIC (Cl. perfringens) [µM] | MIC (E. coli K88+ [1]) [µM] | Lag phase (λ) (E. coli K88+ [2]; dosage 0.25 mmol/L) | Lag phase (λ) (E. coli K88+ [2]; dosage 0.5 mmol/L) | MIC (S. choleraesuis) [µM]
Cc1ccc(C(C)C)c(O)c1 [Thymol, thymol] | 1000 (≈ 150 µg/mL) | 1500 (≈ 225 µg/mL) | 1.66 | 1.65 | 1000 (≈ 150 µg/mL)
C=CCc1ccc(O)c(OC)c1 [Eugenol, eugenol] | 4000 (≈ 657 µg/mL) | 2500 (≈ 411 µg/mL) | 1.77 | 1.91 | 2500 (≈ 411 µg/mL)
